{"source": "PubChem BioAssay AID1259409", "about": "(Chemical Carcinogenesis Research Information System (CCRIS), 2018)", "origin": "cited, not measured here", "system": "rodent chemically induced tumor inhibition, incidence and multiplicity", "test": "CCRIS tumor inhibitor studies", "conditions": "Promoter: NONE; for outcome: Carcinogen: OCHRATOXIN A (303-47-9), Strain/Sex: LEWIS/FEMALE"}
{"smiles": "O=S(=O)(O)CCS", "values": [{"measurement": "tumour outcome (control, treated, inhibition, significance)", "setting": "Carcinogen: 17BETA-ESTRADIOL, 50-28-2, Dose [Inhibitor]: 0, 0.05% IN DRINKING WATER 5 D/WK BEGINNING 5 D POST CARCINOGEN DOSE (STUDY DURATION: 7.5 MO), Route [Inhibitor]: ORAL, Species: HAMSTER, Strain/Sex: SYRIAN/MALE, Target Tissue: Type of Lesion: KIDNEY: TUMOR, Dose [Carcinogen]: 25 MG PELLET REPLACED WITH A SECOND PELLET AFTER 4 MO", "value": "13/13 (100%), 15/19 (79%), 21%, not calculated"}, {"measurement": "tumour outcome (control, treated, inhibition, significance)", "setting": "Carcinogen: CYCLOPHOSPHAMIDE, 50-18-0, Dose [Inhibitor]: 5 MG/KG BW IN DRINKING WATER 5/WK FOR 20 MO SIMULTANEOUSLY WITH CARCINOGEN TREATMENT (STUDY DURATION: 20 MO), Route [Inhibitor]: ORAL, Species: RAT, Strain/Sex: SPRAGUE-DAWLEY/MALE, Target Tissue: Type of Lesion: NERVOUS TISSUE: NEOPLASM, Dose [Carcinogen]: 2.5 MG/KG BW IN DRINKING WATER 5/WK FOR 20", "value": "14%, 19%, -36%, not calculated"}, {"measurement": "tumour outcome (control, treated, inhibition, significance)", "setting": "Carcinogen: CYCLOPHOSPHAMIDE, 50-18-0, Dose [Inhibitor]: 5 MG/KG BW IN DRINKING WATER 5/WK FOR 20 MO SIMULTANEOUSLY WITH CARCINOGEN TREATMENT (STUDY DURATION: 20 MO), Route [Inhibitor]: ORAL, Species: RAT, Strain/Sex: SPRAGUE-DAWLEY/MALE, Target Tissue: Type of Lesion: URINARY BLADDER: TUMOR, Dose [Carcinogen]: 2.5 MG/KG BW IN DRINKING WATER 5/WK FOR 20 MO", "value": "30%, 22%, 27%, p>0.003*"}, {"measurement": "tumour outcome (control, treated, inhibition, significance)", "setting": "Carcinogen: CYCLOPHOSPHAMIDE, 50-18-0, Dose [Inhibitor]: 5 MG/KG BW IN DRINKING WATER 5/WK FOR DURATION OF STUDY SIMULTANEOUSLY WITH CARCINOGEN TREATMENT (STUDY DURATION: LIFE), Route [Inhibitor]: ORAL, Species: RAT, Strain/Sex: SPRAGUE-DAWLEY/MALE, Target Tissue: Type of Lesion: URINARY BLADDER: PAPILLOMA, CARCINOMA, Dose [Carcinogen]: 2.5 MG/KG BW IN DRINKING WATER 5/WK FOR DURATION OF STUDY", "value": "32/100 (32%), 12/50 (24%), 25%, not calculated"}, {"measurement": "tumour outcome (control, treated, inhibition, significance)", "setting": "Carcinogen: CYCLOPHOSPHAMIDE, 50-18-0, Dose [Inhibitor]: 15 MG/KG BW IN DRINKING WATER 5/WK FOR 20 MO SIMULTANEOUSLY WITH CARCINOGEN TREATMENT (STUDY DURATION: 20 MO), Route [Inhibitor]: ORAL, Species: RAT, Strain/Sex: SPRAGUE-DAWLEY/MALE, Target Tissue: Type of Lesion: NERVOUS TISSUE: NEOPLASM, Dose [Carcinogen]: 2.5 MG/KG BW IN DRINKING WATER 5/WK FOR 20 MO", "value": "14%, 24%, -71%, not calculated"}, {"measurement": "tumour outcome (control, treated, inhibition, significance)", "setting": "Carcinogen: CYCLOPHOSPHAMIDE, 50-18-0, Dose [Inhibitor]: 15 MG/KG BW IN DRINKING WATER 5/WK FOR 20 MO SIMULTANEOUSLY WITH CARCINOGEN TREATMENT (STUDY DURATION: 20 MO), Route [Inhibitor]: ORAL, Species: RAT, Strain/Sex: SPRAGUE-DAWLEY/MALE, Target Tissue: Type of Lesion: URINARY BLADDER: TUMOR, Dose [Carcinogen]: 2.5 MG/KG BW IN DRINKING WATER 5/WK FOR 20 MO", "value": "30%, 7%, 77%, p>0.003*"}, {"measurement": "tumour outcome (control, treated, inhibition, significance)", "setting": "Carcinogen: CYCLOPHOSPHAMIDE, 50-18-0, Dose [Inhibitor]: 15 MG/KG BW IN DRINKING WATER 5/WK FOR DURATION OF STUDY SIMULTANEOUSLY WITH CARCINOGEN TREATMENT (STUDY DURATION: LIFE), Route [Inhibitor]: ORAL, Species: RAT, Strain/Sex: SPRAGUE-DAWLEY/MALE, Target Tissue: Type of Lesion: URINARY BLADDER: PAPILLOMA, CARCINOMA, Dose [Carcinogen]: 2.5 MG/KG BW IN DRINKING WATER 5/WK FOR DURATION OF STUDY", "value": "32/100 (32%), 1/50 (2%), 94%, not calculated"}, {"measurement": "tumour outcome (control, treated, inhibition, significance)", "setting": "Carcinogen: N-BUTYL-N(4-HYDROXYBUTYL)NITROSAMINE (3817-11-6), Dose [Inhibitor]: 0.05% IN DRINKING WATER FOR 15 WK (STUDY DURATION: 15 WK), Route [Inhibitor]: ORAL, Species: RAT, Strain/Sex: WISTAR/MALE, Target Tissue: Type of Lesion: URINARY BLADDER: PAPILLOMA, Dose [Carcinogen]: 0.025% IN DRINKING WATER FOR 15 WK", "value": "38/40 (95%), 18/30 (60%), 37%, p< 0.01"}, {"measurement": "tumour outcome (control, treated, inhibition, significance)", "setting": "Carcinogen: N-BUTYL-N(4-HYDROXYBUTYL)NITROSAMINE (3817-11-6), Dose [Inhibitor]: 0.05% IN DRINKING WATER FOR 15 WK (STUDY DURATION: 15 WK), Route [Inhibitor]: ORAL, Species: RAT, Strain/Sex: WISTAR/MALE, Target Tissue: Type of Lesion: URINARY BLADDER: TRANSITIONAL CELL CARCINOMA, Dose [Carcinogen]: 0.025% IN DRINKING WATER FOR 15 WK", "value": "4/40 (10%), 1/30 (3%), 70%, not significant"}, {"measurement": "tumour outcome (control, treated, inhibition, significance)", "setting": "Carcinogen: N-BUTYL-N-(4-HYDROXYBUTYL)NITROSAMINE, 3817-11-6, Dose [Inhibitor]: 350 MG/KG IN DRINKING WATER 5/WK FOR 39 WK SIMULTANEOUSLY WITH CARCINOGEN TREATMENT FOLLOWED BY OBSERVATION FOR LIFE (ST, Route [Inhibitor]: ORAL, Species: RAT, Strain/Sex: SPRAGUE-DAWLEY/MALE, Target Tissue: Type of Lesion: URINARY BLADDER: PAPILLOMATOUS CARCINOMA, TRANSITIONAL CELL CARCINOMA, Dose [Carcinogen]: 70 MG/KG 2/WK FOR 39 WK SIMULTANEOUSLY WITH AGENT TREATMENT", "value": "96%, 91%, 5%, not significant"}, {"measurement": "outcome", "setting": "Dose [Inhibitor]: 1 G/L IN DRINKING WATER FOR LIFETIME (STUDY DURATION: LIFETIME), Route [Inhibitor]: GAVAGE, Species: RAT, Target Tissue: Type of Lesion: URINARY BLADDER: TRANSITIONAL CELL CARCINOMA, Dose [Carcinogen]: 0.4 MG/KG BW 3X/WK FOR LIFETIME", "value": "0/20 (0%), 0/20 (0%), 0%, not significant"}, {"measurement": "outcome", "setting": "Dose [Inhibitor]: 1 G/L IN DRINKING WATER FOR LIFETIME (STUDY DURATION: LIFETIME), Route [Inhibitor]: GAVAGE, Species: RAT, Target Tissue: Type of Lesion: URINARY BLADDER: TRANSITIONAL CELL PAPILLOMA, Dose [Carcinogen]: 0.4 MG/KG BW 3X/WK FOR LIFETIME", "value": "0/20 (0%), 0/20 (0%), 0%, not significant"}, {"measurement": "tumour outcome (control, treated, inhibition, significance)", "setting": "Carcinogen: OCHRATOXIN A, 303-47-9, Dose [Inhibitor]: 1 G/L IN DRINKING WATER FOR LIFETIME (STUDY DURATION: LIFETIME), Route [Inhibitor]: GAVAGE, Species: RAT, Strain/Sex: DA/FEMALE, Target Tissue: Type of Lesion: URINARY BLADDER: TRANSITIONAL CELL PAPILLOMA, Dose [Carcinogen]: 0.4 MG/KG BW 3X/WK FOR LIFETIME", "value": "2/40 (6%), 0/40 (0%), 100%, not significant"}, {"measurement": "tumour outcome (control, treated, inhibition, significance)", "setting": "Carcinogen: OCHRATOXIN A, 303-47-9, Dose [Inhibitor]: 1 G/L IN DRINKING WATER FOR LIFETIME (STUDY DURATION: LIFETIME), Route [Inhibitor]: GAVAGE, Species: RAT, Strain/Sex: DA/MALE, Target Tissue: Type of Lesion: URINARY BLADDER: TRANSITIONAL CELL CARCINOMA, Dose [Carcinogen]: 0.4 MG/KG BW 3X/WK FOR LIFETIME", "value": "2/20 (11%), 0/20 (0%), 100%, not significant"}]}
